Patent US6391882B1, “4,5,6 and 7-indole and indoline derivatitives, their preparation and use” (H. Lundbeck A/S, priority 1998, dated 2002)
Where two headings read alike, the source gives them in different places.

Legend:
[1] = target: T1, Serotonin reuptake (whole rat brain synaptosomes) (Rattus norvegicus, UniProt P31652); test: Inhibition of 3H-5-HT uptake into rat brain synaptosomes; format: biochemical
T1 construct: from tissue; host or cells: whole rat brain synaptosomes
Experimental: Inhibition of ^3H-5-HT Uptake Into Rat Brain Synaptosomes
Using this method the ability of drugs to inhibit the accumulation of ^3H-5-HT into whole rat brain synaptosomes is determined in vitro.

[2] = target: T2, cloned human 5-HT1A receptors (Homo sapiens, UniProt P08908); test: Inhibition of 3H-5-CT binding to human 5-HT1A receptors
T2 construct: expressed in transfected cells; host or cells: HeLa cells (HA7)
T2 sequence (P08908 1-422): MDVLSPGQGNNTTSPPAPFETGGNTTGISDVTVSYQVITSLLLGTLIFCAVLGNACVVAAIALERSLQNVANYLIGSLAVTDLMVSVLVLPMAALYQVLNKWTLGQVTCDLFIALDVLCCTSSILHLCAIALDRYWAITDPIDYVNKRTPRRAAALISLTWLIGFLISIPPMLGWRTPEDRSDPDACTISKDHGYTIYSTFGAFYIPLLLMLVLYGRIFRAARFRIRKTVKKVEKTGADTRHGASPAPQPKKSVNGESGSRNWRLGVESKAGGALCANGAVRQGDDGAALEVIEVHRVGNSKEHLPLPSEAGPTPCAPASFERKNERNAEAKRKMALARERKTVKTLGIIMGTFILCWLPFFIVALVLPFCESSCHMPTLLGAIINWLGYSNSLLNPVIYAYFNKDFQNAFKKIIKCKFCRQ
Experimental: The affinity of the compounds of the invention to 5-HT1A receptors was determined by measuring the inhibition of binding of a radioactive ligand at 5-HT1A receptors as described in the following test:
Inhibition of ^3H-5-CT Binding to Human 5HT1A Receptors
By this method the inhibition by drugs of the binding of the 5-HT1A agonist ^3H-5-carboxamido tryptamine (^3H-5-CT) to cloned human 5-HT1A receptors stably expressed in transfected HeLa cells (HA7) (Fargin, A. et al, J. Biol. Chem., 1989, 264, 14848) is determined in vitro. The assay was performed as a modification of the method described by Harrington, M. A. et al, J. Pharmacol. Exp. Ther., 1994, 268, 1098. Human 5-HT1A receptors (40 μg of cell homogenate) were incubated for 15 minutes at 37° C. in 50 mM Tris buffer at pH 7.7 in the presence of ^3H-5-CT. Non-specific binding was determined by including 10 μM of metergoline. The reaction was terminated by rapid filtration through Unifilter GF/B filters on a Tomtec Cell Harvester. Filters were counted in a Packard Top Counter.

[3] = cloned human 5-HT1A receptors in transfected HeLa cells (HA7), 15 minutes at 37° C., pH 7.7
[4] = 3H-5-HT accumulation into whole rat brain synaptosomes, in vitro, read-out: Inhibition of Serotonin reuptake IC50

T1 sequence (P31652 whole entry): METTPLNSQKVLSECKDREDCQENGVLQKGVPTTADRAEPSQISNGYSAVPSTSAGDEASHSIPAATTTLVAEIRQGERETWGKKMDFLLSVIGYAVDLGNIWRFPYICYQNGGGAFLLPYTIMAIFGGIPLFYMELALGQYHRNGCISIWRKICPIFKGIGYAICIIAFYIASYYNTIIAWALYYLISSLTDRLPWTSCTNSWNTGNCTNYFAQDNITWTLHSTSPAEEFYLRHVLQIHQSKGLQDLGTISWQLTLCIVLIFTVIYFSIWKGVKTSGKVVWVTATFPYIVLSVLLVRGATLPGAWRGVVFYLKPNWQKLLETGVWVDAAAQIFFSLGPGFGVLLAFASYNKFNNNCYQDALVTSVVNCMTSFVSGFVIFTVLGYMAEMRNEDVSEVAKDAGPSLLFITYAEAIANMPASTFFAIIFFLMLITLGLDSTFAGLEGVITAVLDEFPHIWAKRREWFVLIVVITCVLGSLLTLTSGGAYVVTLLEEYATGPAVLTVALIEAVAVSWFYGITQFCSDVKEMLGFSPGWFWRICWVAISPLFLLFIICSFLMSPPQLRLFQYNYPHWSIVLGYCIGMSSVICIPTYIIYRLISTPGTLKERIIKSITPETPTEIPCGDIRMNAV

Structure (SMILES)	IC50 [1]	IC50 [2, 3]	IC50 [1, 4]	IC50 [2]
c1cc(N2CCN(CCc3coc4ccccc34)CC2)c2cc[nH]c2c1 [Compound 1a, 1-(2-(3-Benzofuranyl)ethyl)-4-(1H-indol-4-yl)piperazine]	31 nM	10 nM	–	–
c1cc(N2CCN(Cc3coc4ccccc34)CC2)c2cc[nH]c2c1 [Compound 1b, 1-(3-Benzofuranylmethyl)-4-(1H-indol-4-yl)piperazine]	–	210 nM	290 nM	–
Fc1ccc2occ(CCN3CCN(c4cccc5[nH]ccc45)CC3)c2c1 [Compound 1c, 1-(2-(5-Fluoro-3-benzofuranyl)ethyl)-4-(1H-indol-4-yl)piperazine]	57 nM	12 nM	–	–
Fc1ccc2occ(CCCCN3CCN(c4cccc5[nH]ccc45)CC3)c2c1 [Compound 1d, 1-(4-(5-Fluoro-3-benzofuranyl)-1-butyl)-4-(1H-indol-4-yl)piperazine]	–	2.5 nM	31 nM	–
c1ccc2c(CCN3CCN(c4cccc5[nH]ccc45)CC3)c[nH]c2c1 [Compound 1e, 1-(2-(1H-indol-3-yl)ethyl)-4-(1H-indol-4-yl)piperazine]	4.4 nM	6.9 nM	–	–
c1ccc2c(CCCN3CCN(c4cccc5[nH]ccc45)CC3)c[nH]c2c1 [Compound 1f, 1-(3-(1H-indol-3-yl)-1-propyl)-4-(1H-indol-4-yl)piperazine]	–	9.8 nM	8.2 nM	–
c1ccc2c(CCCCN3CCN(c4cccc5[nH]ccc45)CC3)c[nH]c2c1 [Compound 1g, 1-(4-(1H-indol-3-yl)-1-butyl)-4-(1H-indol-4yl)piperazine]	–	13 nM	12 nM	–
Fc1ccc2occ(CCCN3CCN(c4cccc5[nH]ccc45)CC3)c2c1 [Compound 1h, 1-(3-(5-Fluoro-3-benzofuranyl)-1-propyl)-4-(1H-indol-4-yl)piperazine]	–	11 nM	6.8 nM	–
Cc1oc2c(F)c(F)c(F)c(F)c2c1CCN1CCN(c2cccc3[nH]ccc23)CC1 [Compound 1i, 1-(2-(2-Methyl-4,5,6,7-tetrafluoro-3-benzofuranyl)ethyl)-4-(1H-indol-4-yl)piperaziine]	–	3.4 nM	–	–
c1cc(N2CCN(CCc3n[nH]c4ccccc34)CC2)c2cc[nH]c2c1 [Compound 1j, 1-(2-(3-Indazolyl)ethyl)-4-(1H-indol-4-yl)piperazine]	–	–	360 nM	22 nM
Clc1ccc2c(CCN3CCN(c4cccc5[nH]ccc45)CC3)n[nH]c2c1 [Compound 1k, 1-(2-(6-Chloro-3-indazolyl)ethyl)-4-(1H-indol-4-yl)piperazine]	–	–	150 nM	22 nM
N#Cc1cccc2c(CCN3CCN(c4cccc5[nH]ccc45)CC3)c[nH]c12 [Compound 1l, 1-(2-(7-Cyano-1H-indol-3-yl)ethyl)-4-(1H-indol-4-yl)piperazine]	–	2.5 nM	–	–
Clc1ccc2c(CCN3CCN(c4cccc5[nH]ccc45)CC3)c[nH]c2c1 [Compound 2a, 1-(2-(6-Chloro-1H-indol-3-yl)ethyl)-4-(1H-indol-4-yl)piperazine]	21 nM	3.4 nM	–	–
Clc1cccc2[nH]cc(CCN3CCN(c4cccc5[nH]ccc45)CC3)c12 [Compound 2b, 1-(2-(4-Chloro-1H-indol-3-yl)ethyl)-4-(1H-indol-4-yl)piperazine]	6.9 nM	11 nM	–	–
Fc1ccc2[nH]cc(CCN3CCN(c4cccc5[nH]ccc45)CC3)c2c1 [Compound 2c, 1-(2-(5-Fluoro-1H-indol-3-yl)ethyl)-4-(1H-indol-4-yl)piperazine]	2.3 nM	27 nM	–	–
Clc1ccc2c(CCN3CC=C(c4cccc5[nH]ccc45)CC3)c[nH]c2c1 [Compound 2g, 1-(2-(6-Chloro-1H-indol-3-yl)ethyl)-4-(1H-indol-4-yl)-1,2,3,6-tetrahydropyridine]	22 nM	2.8 nM	–	–
Fc1ccc2[nH]cc(CCN3CC=C(c4cccc5[nH]ccc45)CC3)c2c1 [Compound 2h, 1-(2-(5-Fluoro-1H-indol-3-yl)ethyl)-4-(1H-indol-4-yl)-1,2,3,6-tetrahydropyridine]	2.5 nM	11 nM	–	–

Structure (SMILES)	IC50 [1]	IC50 [2, 3]	IC50 [1, 4]	IC50 [2]
Brc1cccc2c(CCN3CCN(c4cccc5[nH]ccc45)CC3)c[nH]c12 [Compound 2i, 1-(2-(7-Bromo-1H-indol-3-yl)ethyl)-4-(1H-indol-4-yl)piperazine]	5.9 nM	5.4 nM	–	–
Brc1ccc2[nH]cc(CCN3CCN(c4ccc5[nH]ccc5c4)CC3)c2c1 [Compound 2t, 1-(2-(5-Bromo-1H-indol-3-yl)ethyl)-4-(1H-indol-5-yl)piperazine]	39 nM	230 nM	–	–
Clc1ccc2[nH]cc(CCN3CCN(c4ccc5[nH]ccc5c4)CC3)c2c1 [Compound 2u, 1-(2-(5-Chloro-1H-indol-3-yl)ethyl)-4-(1H-indol-5-yl)piperazine]	20 nM	310 nM	–	–
OCc1cc(N2CCN(CCc3c[nH]c4ccc(F)cc34)CC2)c2cc[nH]c2c1 [Compound 3a, 1-(2-(5-Fluoro-1H-indol-3-yl)ethyl)-4-(6-hydroxymethyl-1H-indol-4-yl)piperazine]	17 nM	910 nM	–	–
Fc1ccc2c(CCCN3CCN(c4cccc5[nH]ccc45)CC3)noc2c1 [Compound 4a, 1-(3-(6-Fluoro-1,2-benzisoxazol-3-yl)-1-propyl)-4-(1H-indol-4-yl)piperazine]	–	9.8 nM	360 nM	–
COC(=O)c1cc(N2CCN(CCc3c[nH]c4ccccc34)CC2)c2cc[nH]c2c1 [Compound 4f, 1-(2-(1H-indol-3-yl)ethyl)-4-(6-methoxycarbonyl-1H-indol-4-yl)piperazine]	14 nM	1200 nM	–	–
COC(=O)c1cc(N2CCN(CCc3c[nH]c4cc(Cl)ccc34)CC2)c2cc[nH]c2c1 [Compound 4g, 1-(2-(6-Chloro-1H-indol-3-yl)ethyl)-4-(6-methoxycarbonyl-1-H-indol-4-yl)piperazine]	23 nM	350 nM	–	–
COC(=O)c1cc(N2CCN(CCc3coc4ccc(F)cc34)CC2)c2cc[nH]c2c1 [Compound 4h, 1-(2-(5-Fluoro-3-benzofuranyl)ethyl)-4-(6-methoxycarbonyl-1H-indol-4-yl)piperazine]	–	3100 nM	71 nM	–
Fc1ccc2occ(CN3CCN(c4cccc5[nH]ccc45)CC3)c2c1 [Compound 4l, 1-(5-Fluoro-3-benzofuranylmethyl)-4-(1H-indol-4-4-yl)piperazine]	–	330 nM	950 nM	–
N#Cc1c[nH]c2cccc(N3CCN(CCc4c[nH]c5ccccc45)CC3)c12 [Compound 4m, 1-(3-Cyano-1H-indol-4-yl)-4-(2-(1H-indol-3-yl)ethyl)piperazine]	3 nM	3.2 nM	–	–
N#Cc1c[nH]c2cccc(N3CCN(CCc4coc5ccc(F)cc45)CC3)c12 [Compound 4n, 1-(3-Cyano-1H-indol-4-yl)-4-(2-(5-fluoro-3-benzofuranyl)ethyl)piperazine]	–	5.7 nM	65 nM	–
N#Cc1c[nH]c2cccc(N3CCN(CCc4c[nH]c5cc(Cl)ccc45)CC3)c12 [Compound 4o, 1-(2-(6-Chloro-1H-indol-3-yl)ethyl)-4-(3-cyano-1H-indol-4-yl)piperazine]	19 nM	2.9 nM	–	–
N#Cc1c[nH]c2cccc(N3CCN(CCc4coc5ccccc45)CC3)c12 [Compound 4p, 1-(2-(3-Benzofuranyl)ethyl)-4-(3-cyano-1H-indol-4-yl)piperazine]	–	4.3 nM	22 nM	–
Cc1ccc2occ(CCN3CCN(c4cccc5[nH]ccc45)CC3)c2c1 [Compound 4q, 1-(1H-Indol-4-yl)-4-(2-(5-methyl-3-benzofuranyl)ethyl)piperazine]	34 nM	21 nM	–	–
Cc1cccc2occ(CCN3CCN(c4cccc5[nH]ccc45)CC3)c12 [Compound 4r, 1-(1H-Indol-4-yl)-4-(2-(4-methyl-3-benzofuranyl)ethyl)piperazine]	12 nM	10 nM	–	–
Fc1ccc2occ(CCCN3CC=C(c4cccc5[nH]ccc45)CC3)c2c1 [Compound 4s, 1-(3-(5-Fluoro-3-benzofuranyl)-1-propyl)-4-(1H-indol-4-yl)-1,2,3,6-tetrahydropyridine]	24 nM	16 nM	–	–
N#Cc1c[nH]c2cccc(N3CCN(CCc4c[nH]c5cccc(Cl)c45)CC3)c12 [Compound 4x, 1-(2-(4-Chloro-1H-indol-3-yl)ethyl)-4-(3-cyano-1H-indol-4-yl)piperazine]	–	5.4 nM	–	–
